Relative viability data for eight cell lines are collected here from the supplement of paper PMC10307832.

Compound in assay [1]: Cc1ccc2nc(NCCN)c3ncc(C)n3c2c1 + CC1(C)CCC(c2ccc(Cl)cc2)=C(CN2CCN(c3ccc(C(=O)NS(=O)(=O)c4ccc(N[C@H](CCN5CCOCC5)CSc5ccccc5)c(S(=O)(=O)C(F)(F)F)c4)cc3)CC2)C1 [Navitoclax] (partner 0.5 µM)
The experiment in a line: relative viability (nuclei count vs DMSO), 5 days (fraction); higher = more cells survive. In a few lines: (§1)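 Lung cancer cell lines were seeded in 1536-well plates and dosed by pin tool the next day, with either a single drug or a fixed anchor-drug dose combined with five library-drug doses (not always all listed) spaced in √10 steps. Five days later, one step fixed the cells and stained their nuclei (final 0.05% Triton X-100, 1% formaldehyde, 1 ug/ml Hoechst), and nuclei were counted on 4× images. Relative viability is the nuclei count in treated wells divided by the count in vehicle wells, and each value is the median of duplicate plates.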

Compound in assay [2]: O=C(/C=C/c1ccccc1)NC(NC(=S)Nc1cccc2cccnc12)C(Cl)(Cl)Cl [Salubrinal] + COc1cc2c(Oc3ccc(NC(=O)C4(C(=O)Nc5ccc(F)cc5)CC4)cc3F)ccnc2cc1OCCCN1CCOCC1 [Foretinib] (partner 0.25 µM)
The description is as above. Put shortly:
as §1

Regarding NCI-H3122, the relative viability worked out at 1.03 in assay [1] (first compound 0.04 µM); 1.03 in assay [1] (first compound 0.1265 µM); 1.06 in assay [1] (first compound 0.4 µM); 1 in assay [1] (first compound 1.265 µM); 1.1 in assay [1] (first compound 4 µM); 1.07 in assay [2] (first compound 0.08 µM). Further, the relative viability in assay [2] (first compound 0.253 µM) was 0.924; in assay [2] (first compound 0.8 µM) it was 1.03; in assay [2] (first compound 2.53 µM), 0.986; in assay [2] (first compound 8 µM) it was 0.964.
As to PC-3 [JPC-3], the relative viability in assay [1] (first compound 0.04 µM) came to 0.826; in assay [1] (first compound 0.1265 µM), 0.767; in assay [1] (first compound 0.4 µM), 0.848; in assay [1] (first compound 1.265 µM), 0.786; in assay [1] (first compound 4 µM), 0.827; in assay [2] (first compound 0.08 µM), 0.99. The relative viability is 0.918 in assay [2] (first compound 0.253 µM), 1.07 in assay [2] (first compound 0.8 µM), 1 in assay [2] (first compound 2.53 µM) and 0.998 in assay [2] (first compound 8 µM).
Turning to PC-14, the relative viability was 0.985 in assay [1] (first compound 0.04 µM); 1.02 in assay [1] (first compound 0.1265 µM); 0.993 in assay [1] (first compound 0.4 µM); 0.908 in assay [1] (first compound 1.265 µM); 0.856 in assay [1] (first compound 4 µM); 1.02 in assay [2] (first compound 0.08 µM). The relative viability in assay [2] (first compound 0.253 µM) was 0.873; in assay [2] (first compound 0.8 µM) it was 1.1; in assay [2] (first compound 2.53 µM), 1; in assay [2] (first compound 8 µM), 0.931.
Consider RERF-LC-KJ, for which the relative viability in assay [1] (first compound 0.04 µM) was 0.881; in assay [1] (first compound 0.1265 µM), 0.821; in assay [1] (first compound 0.4 µM), 1.02; in assay [1] (first compound 1.265 µM) it was 0.65; in assay [1] (first compound 4 µM), 0.726; in assay [2] (first compound 0.08 µM), 0.959. Further, the relative viability in assay [2] (first compound 0.253 µM) is 0.699; in assay [2] (first compound 0.8 µM) it was 0.941; in assay [2] (first compound 2.53 µM), 0.921; in assay [2] (first compound 8 µM), 0.706.
SK-LU-1: the relative viability stood at 1.02 in assay [1] (first compound 0.04 µM); 0.898 in assay [1] (first compound 0.1265 µM); 0.812 in assay [1] (first compound 0.4 µM); 0.769 in assay [1] (first compound 1.265 µM); 0.778 in assay [1] (first compound 4 µM); 0.947 in assay [2] (first compound 0.08 µM). Moreover, the relative viability was 0.898 in assay [2] (first compound 0.253 µM), 0.97 in assay [2] (first compound 0.8 µM), 0.817 in assay [2] (first compound 2.53 µM) and 0.775 in assay [2] (first compound 8 µM).
Take SK-MES-1: the relative viability in assay [1] (first compound 0.04 µM) is 1.26; in assay [1] (first compound 0.1265 µM) it was 1.33; in assay [1] (first compound 0.4 µM) it was 1.14; in assay [1] (first compound 1.265 µM), 1.13; in assay [1] (first compound 4 µM) it was 1.17; in assay [2] (first compound 0.08 µM), 1.08. Moreover, the relative viability in assay [2] (first compound 0.253 µM) was found to be 0.85; in assay [2] (first compound 0.8 µM) it was 1.04; in assay [2] (first compound 2.53 µM), 1.12; in assay [2] (first compound 8 µM), 0.713.
As for SW 1573, the relative viability stood at 1.07 in assay [1] (first compound 0.04 µM); 0.938 in assay [1] (first compound 0.1265 µM); 1.16 in assay [1] (first compound 0.4 µM); 1.1 in assay [1] (first compound 1.265 µM); 0.689 in assay [1] (first compound 4 µM); 0.875 in assay [2] (first compound 0.08 µM). In addition, the relative viability in assay [2] (first compound 0.253 µM) amounted to 0.719; in assay [2] (first compound 0.8 µM), 0.979; in assay [2] (first compound 2.53 µM) it was 0.954; in assay [2] (first compound 8 µM), 1.07.
Turning to UMC-11, the relative viability was 0.315 in assay [1] (first compound 0.04 µM); 0.342 in assay [1] (first compound 0.1265 µM); 0.33 in assay [1] (first compound 0.4 µM); 0.324 in assay [1] (first compound 1.265 µM); 0.365 in assay [1] (first compound 4 µM); 1.17 in assay [2] (first compound 0.08 µM). The relative viability in assay [2] (first compound 0.253 µM) was found to be 1; in assay [2] (first compound 0.8 µM), 1.13; in assay [2] (first compound 2.53 µM), 1.1; in assay [2] (first compound 8 µM), 1.21.
